In ChEMBL document CHEMBL1148084, “Novel naphthoquinones from Conospermum incurvum” (J Nat Prod, 1994):
Calls of active or inactive are those of the source. The rule behind the calls is not given here.

These compounds were tested on Human immunodeficiency virus 1 (assay: Antiviral activity against HIV1 in human cells by XTT assay).
Format: functional, organism-based
For `CC1=C(O)C(=O)c2c(ccc3c2C=C[C@@](C)(CCCC(C)(C)O)O3)C1=O`, the Activity was “inactive”. For `COC1=C(C)C(=O)c2ccc3c(c2C1=O)C=C[C@@](C)(CCCC(C)(C)O)O3`, the Activity was “inactive”. `COc1cc2c(cc1O)C(=O)C(C)=C(C)C2=O` was tested, and the Activity was “inactive”. With `CC(C)=CCC[C@]1(C)C=Cc2c(ccc3c2C(=O)C(O)=C(C)C3=O)O1` the Activity was “inactive”. With `COC1=C(C)C(=O)c2ccc3c(c2C1=O)C=C[C@@](C)(CCC=C(C)C)O3` the Activity was “inactive”. For `CC(C)=CCC/C(C)=C/Cc1c(O)ccc2c1C(=O)C(O)=C(C)C2=O`, the Activity was “inactive”.
